How the values were obtained:
[1] = target: BCRP (Homo sapiens (Human), UniProt Q9UNQ0); test: BCRP MDCKII efflux assay (Assay 7); assay type: in vitro ADME; details: dog; efflux ratio Papp(B-A)/Papp(A-B), BCRP MDCKII cells; read-out: Assay 7 Pe Ratio
Protocol: Assay conditions included with and without the BCRP-specific inhibitor, KO143, at a concentration of 0.3 μM to ascertain the contribution of BCRP to the efflux value of the test compound.
Final organic concentration in the assay was 1%.

[2] = target: ErbB2 with Exon 20 YVMA insertion (HER2-YVMA) (Homo sapiens (Human), UniProt P04626, INS775YVMA); test: Cellular Phosphorylation Assay, Assay 4 (constitutive ErbB2 phosphorylation, NIH 3T3 cells); assay type: cell-based
[3] = target: EGFR wild type (EGFR WT) (Homo sapiens (Human), UniProt P00533); test: Cellular Phosphorylation Assay, Assay 5 (EGF-stimulated EGFR phosphorylation, NIH 3T3 cells); assay type: cell-based
[4] = target: ErbB2 WT (Homo sapiens (Human), UniProt P04626); test: ErbB Enzyme Assay (HTRF KinEASE-TK), Assay 2; assay type: biochemical
[5] = target: MDR1 (P-gp) (Homo sapiens (Human), UniProt P08183); test: in vitro; details: pig, LLC-PK1
Protocol: Both LLC-PK1 and MDR1 transfected LLC-PK1 cells were cultured and plated according to manufacturer's recommendations with the exception that the passage media contained only 2% fetal bovine serum so as to extend passage time out to seven days.
Both positive and negative controls were used to assess functionality of P-gp or BCRP efflux in the assays. Stock solutions for assay controls and the test article were prepared in DMSO for final test concentrations of 10 μM and 1 μM, respectively. Final organic concentration in the assay was 1%. All dosing solutions contained 10 μM lucifer yellow to monitor LLC PK1 or MDCKII cell monolayer integrity.
For the apical to basolateral determination (A to B), 75 μL of the test article in transport buffer were added to the apical side of the individual transwells and 250 μL of basolateral media, without compound or lucifer yellow, were added to each well. For the basolateral to apical determination (B to A), 250 μL of test article in transport buffer were added to each well and 75 μL transport buffer, without compound or lucifer yellow, were added to each transwell. All tests were performed in triplicate, and each compound was tested for both apical to basolateral and basolateral to apical transport. The plates were incubated for 2 hours on a Lab-Line Instruments Titer Orbital Shaker (VWR, West Chester, PA) at 50 rpm and 37° C. with 5% CO2. All culture plates were removed from the incubator, 50 μL of media were removed from the apical and basolateral portion of each well, and added to 150 μL of 1 μM labetalol in 2:1 acetonitrile (ACN): H2O, v/v.
The plates were read using a Molecular Devices (Sunnyvale, CA) Gemini Fluorometer to evaluate the lucifer yellow concentrations at excitation/emission wavelengths of 425/535 nm. These values were accepted when found to be below 2% for apical to basolateral and 5% basolateral to apical flux across the MDR1-transfected LLC-PK1 or BCRP-transfected MDCKII cell monolayers. The plates were sealed, and the contents of each well analyzed by LC MS/MS. The compound concentrations were determined from the ratio of the peak areas of the compound to the internal standard (labetalol) in comparison to the dosing solution.
The LC-MS/MS system was comprised of an HTS-PAL autosampler (Leap Technologies, Carrboro, NC), an HP1200 HPLC (Agilent, Palo Alto, CA), and a MDS Sciex 4000 Q Trap system (Applied Biosystems, Foster City, CA). […] The total run time, including re-equilibration, for a single injection was 1.2 minutes. Mass spectrometric detection of the analytes was accomplished using the ion spray positive mode. Analyte responses were measured by multiple reaction monitoring (MRM) of transitions unique to each compound (the protonated precursor ion and selected product ions for each test article and m/z 329 to m/z 162 for labetalol, the internal standard).
An efflux ratio is calculated from the mean apical to basolateral (A-B) Papp data and basolateral to apical (B-A) Papp data: Efflux ratio=Papp(B−A)/Papp(A−B)

[6] = target: EGFR (Homo sapiens (Human), UniProt P00533); test: ErbB Enzyme Assay (HTRF KinEASE-TK), Assay 3; assay type: biochemical
[7] = EGF-stimulated EGFR WT phosphorylation
[8] = cellular ErbB2 YVMA phosphorylation
[9] = cellular EGFR WT phosphorylation, EGF-stimulated

EGFR wild type (EGFR WT), sequence (P00533 25-1210): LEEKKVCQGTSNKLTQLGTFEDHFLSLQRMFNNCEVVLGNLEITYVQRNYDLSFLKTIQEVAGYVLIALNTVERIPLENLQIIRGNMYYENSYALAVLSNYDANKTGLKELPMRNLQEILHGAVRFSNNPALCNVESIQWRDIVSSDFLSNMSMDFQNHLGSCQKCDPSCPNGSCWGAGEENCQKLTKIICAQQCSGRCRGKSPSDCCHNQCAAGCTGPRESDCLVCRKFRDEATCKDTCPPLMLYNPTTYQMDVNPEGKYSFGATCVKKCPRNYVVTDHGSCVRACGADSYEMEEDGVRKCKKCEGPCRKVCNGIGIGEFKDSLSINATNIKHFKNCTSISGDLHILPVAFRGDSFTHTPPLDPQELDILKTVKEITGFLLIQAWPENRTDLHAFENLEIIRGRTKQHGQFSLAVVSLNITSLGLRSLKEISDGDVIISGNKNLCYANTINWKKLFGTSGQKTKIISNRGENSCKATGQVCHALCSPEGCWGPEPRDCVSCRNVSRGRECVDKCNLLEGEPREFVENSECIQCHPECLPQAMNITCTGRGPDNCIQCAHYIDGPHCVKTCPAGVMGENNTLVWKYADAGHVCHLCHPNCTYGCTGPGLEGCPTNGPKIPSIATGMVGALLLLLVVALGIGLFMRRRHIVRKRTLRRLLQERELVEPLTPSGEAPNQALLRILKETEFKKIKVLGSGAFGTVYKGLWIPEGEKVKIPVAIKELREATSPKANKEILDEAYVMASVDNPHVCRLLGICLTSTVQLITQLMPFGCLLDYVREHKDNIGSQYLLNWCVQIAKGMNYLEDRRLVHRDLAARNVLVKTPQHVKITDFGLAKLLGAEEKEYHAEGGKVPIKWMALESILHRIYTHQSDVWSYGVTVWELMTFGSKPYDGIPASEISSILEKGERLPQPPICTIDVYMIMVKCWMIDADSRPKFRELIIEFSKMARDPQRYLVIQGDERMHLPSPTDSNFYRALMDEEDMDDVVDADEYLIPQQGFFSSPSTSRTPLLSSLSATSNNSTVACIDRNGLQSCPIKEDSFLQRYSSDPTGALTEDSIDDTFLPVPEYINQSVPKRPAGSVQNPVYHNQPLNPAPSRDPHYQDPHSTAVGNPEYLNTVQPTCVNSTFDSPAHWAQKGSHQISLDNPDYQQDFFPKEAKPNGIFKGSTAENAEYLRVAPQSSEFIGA
EGFR, sequence (P00533 25-1210): as above
ErbB2 with Exon 20 YVMA insertion (HER2-YVMA), sequence (P04626 other isoform, or with tags, fused parts or gaps ins YVMA behind 775): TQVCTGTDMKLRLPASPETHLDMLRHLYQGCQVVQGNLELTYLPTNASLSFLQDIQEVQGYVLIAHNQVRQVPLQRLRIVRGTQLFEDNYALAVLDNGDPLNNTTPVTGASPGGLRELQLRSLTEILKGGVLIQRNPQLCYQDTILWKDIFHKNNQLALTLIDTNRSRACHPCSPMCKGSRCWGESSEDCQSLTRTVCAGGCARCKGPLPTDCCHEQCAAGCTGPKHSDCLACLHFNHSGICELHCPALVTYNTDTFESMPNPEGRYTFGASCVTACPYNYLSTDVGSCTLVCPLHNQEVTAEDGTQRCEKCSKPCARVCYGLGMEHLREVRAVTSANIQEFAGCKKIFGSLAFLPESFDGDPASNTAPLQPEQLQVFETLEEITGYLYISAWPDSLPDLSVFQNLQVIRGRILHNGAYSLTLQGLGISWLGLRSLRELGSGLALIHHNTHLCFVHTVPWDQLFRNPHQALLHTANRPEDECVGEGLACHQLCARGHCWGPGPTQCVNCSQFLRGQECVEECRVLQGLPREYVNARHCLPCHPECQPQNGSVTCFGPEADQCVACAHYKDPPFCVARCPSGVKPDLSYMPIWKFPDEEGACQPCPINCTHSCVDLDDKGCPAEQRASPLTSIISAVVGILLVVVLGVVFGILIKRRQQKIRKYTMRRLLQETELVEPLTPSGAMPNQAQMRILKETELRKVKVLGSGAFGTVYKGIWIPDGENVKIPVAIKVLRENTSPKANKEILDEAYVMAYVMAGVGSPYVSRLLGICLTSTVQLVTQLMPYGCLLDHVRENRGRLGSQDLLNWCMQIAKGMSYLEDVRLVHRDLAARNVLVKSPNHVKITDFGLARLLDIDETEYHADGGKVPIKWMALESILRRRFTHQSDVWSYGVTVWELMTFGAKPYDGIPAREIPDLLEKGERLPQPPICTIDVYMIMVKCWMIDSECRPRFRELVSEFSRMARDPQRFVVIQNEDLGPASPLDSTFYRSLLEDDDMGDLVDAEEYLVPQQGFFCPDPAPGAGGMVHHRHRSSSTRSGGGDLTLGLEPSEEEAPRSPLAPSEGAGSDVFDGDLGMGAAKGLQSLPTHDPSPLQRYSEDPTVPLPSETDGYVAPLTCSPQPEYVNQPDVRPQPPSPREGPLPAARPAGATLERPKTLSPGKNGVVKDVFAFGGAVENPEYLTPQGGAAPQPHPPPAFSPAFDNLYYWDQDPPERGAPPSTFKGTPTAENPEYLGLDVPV
MDR1 (P-gp), sequence (P08183 whole entry): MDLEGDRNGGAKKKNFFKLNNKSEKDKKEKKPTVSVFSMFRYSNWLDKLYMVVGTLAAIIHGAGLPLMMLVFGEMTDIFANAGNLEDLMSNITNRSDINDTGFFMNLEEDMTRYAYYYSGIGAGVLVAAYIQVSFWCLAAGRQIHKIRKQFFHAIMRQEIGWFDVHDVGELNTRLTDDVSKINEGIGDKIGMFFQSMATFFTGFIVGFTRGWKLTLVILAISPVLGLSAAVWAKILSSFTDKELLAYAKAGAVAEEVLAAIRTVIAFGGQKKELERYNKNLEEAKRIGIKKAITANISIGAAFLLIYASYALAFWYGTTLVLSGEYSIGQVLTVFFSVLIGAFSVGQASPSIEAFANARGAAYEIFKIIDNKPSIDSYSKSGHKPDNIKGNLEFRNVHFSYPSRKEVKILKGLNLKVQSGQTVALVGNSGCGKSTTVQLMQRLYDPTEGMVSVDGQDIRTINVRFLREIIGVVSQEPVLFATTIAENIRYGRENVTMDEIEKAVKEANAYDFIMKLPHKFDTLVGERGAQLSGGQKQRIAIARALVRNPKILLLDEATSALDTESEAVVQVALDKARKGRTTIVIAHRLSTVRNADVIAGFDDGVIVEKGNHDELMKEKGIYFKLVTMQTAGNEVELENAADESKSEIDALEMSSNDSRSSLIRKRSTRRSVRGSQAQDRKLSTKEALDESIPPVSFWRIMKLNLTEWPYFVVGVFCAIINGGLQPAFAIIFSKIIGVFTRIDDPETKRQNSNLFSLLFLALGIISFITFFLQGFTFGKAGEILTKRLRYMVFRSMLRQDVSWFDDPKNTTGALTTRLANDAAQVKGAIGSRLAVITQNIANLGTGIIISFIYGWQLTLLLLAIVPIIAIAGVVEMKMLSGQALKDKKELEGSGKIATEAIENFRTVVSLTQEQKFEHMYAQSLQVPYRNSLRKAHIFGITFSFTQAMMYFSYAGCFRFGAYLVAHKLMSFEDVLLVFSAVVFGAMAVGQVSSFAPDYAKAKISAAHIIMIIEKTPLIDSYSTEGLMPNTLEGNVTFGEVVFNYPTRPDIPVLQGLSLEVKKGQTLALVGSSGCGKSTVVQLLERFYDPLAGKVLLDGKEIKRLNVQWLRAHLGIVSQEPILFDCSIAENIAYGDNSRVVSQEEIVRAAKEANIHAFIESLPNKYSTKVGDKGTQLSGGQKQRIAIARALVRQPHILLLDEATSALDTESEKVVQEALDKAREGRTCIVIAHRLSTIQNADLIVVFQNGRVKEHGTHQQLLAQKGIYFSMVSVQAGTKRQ

Compound | efflux ratio at 2 h, 1 µM [1] | IC50 ([2]; ErbB2 YVMA phosphorylation) | IC50 [3, 7] | IC50 ([4]; ErbB2 WT enzyme) | efflux ratio at 2 h, 1 µM [5] | IC50 ([6]; EGFR enzyme) | IC50 [2, 8] | IC50 [3, 9] | IC50 ([4]; ErbB2 WT enzyme assay) | IC50 ([6]; EGFR enzyme assay)
C=CC(=O)N1CCC(c2ccc3ncnc(Nc4ccc(Oc5ccc6c(c5)ncn6C)c(C)c4F)c3n2)CC1(C)C (stereo not drawn) [Example 127, 1-(4-(4-((2-fluoro-3-methyl-4-((1-methyl-1H-benzo[d]imidazol-5-yl)oxy)phenyl)amino)pyrido[3,2-d]pyrimidin-6-yl)-2,2-dimethylpiperidin-1-yl)prop-2-en-1-one] | 1.6 | 32.7 nM | ≥ 5000 nM | 271 nM | 1.2 | ≥ 10000 nM |  |  |  | 
C=CC(=O)N1CCCC(c2ccc3ncnc(Nc4cc(C)c(Oc5cnc6c(c5)ncn6C)cc4F)c3n2)CC1 (stereo not drawn) [Example 412] | 3 |  |  |  | 1.6 |  | 29.2 nM | ≥ 5000 nM | 206 nM | ≥ 10000 nM
C=CC(=O)N1[C@@H]2CC[C@H]1[C@H](c1ccc3ncnc(Nc4cc(C)c(Oc5ccc6c(c5)ncn6C)cc4F)c3n1)C2 [Example 393] | 2.2 |  |  |  | 1.8 |  | 15.4 nM | ≥ 5000 nM | 13.4 nM | 715 nM
C=CC(=O)N1CC2CC(C1)N2c1ccc2ncnc(Nc3ccc(Oc4cnc5c(c4)ncn5C)c(C)c3F)c2n1 [Example 435] | 2 |  |  |  | 1.5 |  | 16 nM | 1140 nM | 314 nM | 587 nM
C=CC(=O)N1[C@@H]2CC[C@H]1[C@H](c1ccc3ncnc(Nc4ccc(Oc5ccc6c(c5)ncn6C)c(C)c4F)c3n1)C2 [Example 394] | 1.8 |  |  |  | 2.6 |  | 10.7 nM | ≥ 5000 nM | 11.4 nM | 252 nM
C=CC(=O)N1CCN(c2ccc3ncnc(Nc4cc(C)c(Oc5cnc6c(c5)ncn6C)cc4F)c3n2)C[C@@H]1C1CC1 [Example 355] | 7.2 |  |  |  | 1.5 |  | 28.5 nM | ≥ 5000 nM | 158 nM | ≥ 10000 nM
CC#CC(=O)N1CC[C@@H]2C[C@H]1CN2c1ccc2ncnc(Nc3ccc(Oc4ccn5ncnc5c4)c(C)c3F)c2n1 [Example 176, 1-((1 S,5R)-6-(4-((4-([1,2,4]triazolo[1,5-a]pyridin-7-yloxy)-2-fluoro-3-methylphenyl)amino)pyrido[3,2-d]pyrimidin-6-yl)-2,6-diazabicyclo[3.2.1]octan-2-yl)but-2-yn-1-one] | 2.4 | 24.4 nM | 3620 nM | 48.5 nM | 1 | 6690 nM |  |  |  | 
C=CC(=O)N1[C@@H]2CC[C@H]1[C@H](c1ccc3ncnc(Nc4ccc(Oc5cnc6c(c5)ncn6C)c(C)c4F)c3n1)C2 [Example 419] | 2.2 |  |  |  | 0.8 |  | 21.5 nM | ≥ 5000 nM | 42.3 nM | 1040 nM
C=CC(=O)N1C[C@H](c2ccc3ncnc(Nc4ccc(Oc5ccn6ncnc6c5)c(C)c4F)c3n2)C[C@@H]1C1CC1 (racemic) [Example 302] | 3.5 |  |  |  | 1.3 |  | 17.4 nM | 1450 nM | 8.2 nM | 712 nM
C=CC(=O)N1CCN(c2ccc3ncnc(Nc4ccc(Oc5ccn6ncnc6c5)c(C)c4F)c3n2)CC1 [Example 96, 1-(4-(4-((4-([1,2,4]triazolo[1,5-a]pyridin-7-yloxy)-2-fluoro-3-methylphenyl)amino)pyrido[3,2-d]pyrimidin-6-yl)piperazin-1-yl)prop-2-en-1-one] | 6.1 | 6.8 nM | 538 nM | 16.7 nM | 1.8 | 835 nM |  |  |  | 

From patent US12447153B2, “HER2 mutation inhibitors” (Array BioPharma Inc., priority 2021, dated 2025)
